Patent publication US9358191B2, “Deodorant composition” (priority 2002, dated 2016)

Assay: Deodorizing effect on malodor gas, closed circulation system
Settings: 1 mL on absorbent cotton, 2 hours of working
Procedure: Into a 4 L odorless bag, 4 L of air was included by means of an air pump. Each malodor gas (ammonia, trimethylamine, hydrogen sulfide, or methyl mercaptan) was injected thereinto by an injection syringe to regulate a gas concentration. The bag was set at a test apparatus of closed circulation system fitted with an air pump and the air pump was worked at an air amount of about 1000 mL/minute. One milliliter of the above deodorant composition was supported on an absorbent cotton (0.2 g) and the cotton was set at the discharging side of the air pump. After 2 hours of working, the remaining amount of the malodor gas in the system was measured using a dedicated gas detecting tube (Gastech Corporation) and a deodorization rate was calculated according to the following expression.
As a comparative example, an absorbent cotton impregnated with 1 mL of a 20 mM aqueous solution of gallic acid was set at the discharging side of the air pump, instead of the absorbent cotton on which the above deodorant composition was supported. Then, the test was conducted similarly and the deodorization rate was calculated.
Deodorization rate (%)=100×{1−(A/B)}
In the above expression, A means the measured concentration of the malodor components and B means the concentration of the malodor components measured in the control. The control is the case that an absorbent cotton was impregnated with 1 mL of water instead of 1 mL of the above deodorant composition.

O=C(O)c1cc(O)c(O)c(O)c1 [Gallic acid aqueous solution, gallic acid]
Deodorization rate (Ammonia, initial concentration 60 ppm): 85.0%
Deodorization rate (Hydrogen sulfide, initial concentration 120 ppm): 5.0%
Deodorization rate (Methyl mercaptan, initial concentration 100 ppm): 0%
Deodorization rate (Trimethylamine, initial concentration 130 ppm): 70.0%
